Reference: patent US20250163370A1, “METHOD FOR INDUCING DIFFERENTIATION OF PLURIPOTENT STEM CELLS INTO RETINAL PIGMENT […]” (OSAKA UNIVERSITY, priority 2022, published 2025)
Entries after “also recorded” stand apart in the source; their conditions may differ.

Test system: Human skin-derived iPS cells (253G1)
Type: cell-based

**Q.** How did the “differentiation into other cells (RPE cell versus cell group with fibroblast-like morphology)” value turn out when hemagglutinin [HA complex] was run?
**A.** <<cell group; also recorded: <cell group

**Q.** What about the “formation of cell aggregates in three-dimensional layer structure” value of the same substance?
**A.** small cell; also recorded: smaller cell

**Q.** And the “intercellular adhesion of the cell aggregates” value?
**A.** moderately loosened

**Q.** What about the “number of cells that differentiated into RPE cells” value of the same substance?
**A.** increased strikingly

**Q.** What about the “number of fibroblast-like cell groups (undesired cells observed together with RPE cells)” value of the same substance?
**A.** decreased

**Q.** What about the “size of the cell aggregates” value of the same substance?
**A.** became smaller
